Patent publication US20230248660A1 (Intelgenx Corp., priority 2016, published 2023)

Columns and labels:
Porcine buccal mucosa = experiment: Loxapine diffusion through Porcine buccal mucosa (Franz cell); conditions: penetration enhancer in loxapine oral film, permeation through the mucosa
Procedure: FIG. 1 graphically depicts 1 oxapine film diffusion through Porcine buccal mucosa (48-hrs-old unfrozen fresh mucosa) (Franz cell 1.76 cm2; 37° C.); saliva pH 6.8.
FIG. 2 graphically depicts 1 oxapine film diffusion through Porcine buccal mucosa (26-hrs-old unfrozen fresh mucosa) (Franz cell 1.76 cm2; 37° C.); saliva pH 6.8.
FIG. 3 graphically depicts 1 oxapine Solutions-diffusion through Porcine buccal mucosa (fresh mucosa kept at 4C for 48 hours) (Franz cell 1.76 cm2; 37° C.); saliva pH 6.8.
These penetration enhancers include sulphoxides (dimethylsulphoxide, decylmethyl sulfoxide), azones (laurocapram), pyrrolidones (2pyrrolidone, 2P), alcohols/alkanols (ethanol or decanol), glycols (propylene glycol), surfactants (anionic, sodium lauryl sulfate, sodium decyl sulfate), (Nonionic, Tween, PLE), (Cationic, chitosan, cetylpyridinium chloride), terpenes (1,8-cineole, menthol, and menthone, D-limonene), fatty acids (oleic acid, sodium caprate), and bile salts (sodium deoxycholate, sodium deoxyglycocholate).

[1] = at or near neutral pH; cited from earlier work

Row | Molecule | Effect on loxapine absorption/permeation (Porcine buccal mucosa) | further results
1 | C=C(C)[C@@H]1CC=C(C)CC1 [(S)-(−)-Limonene] | positif effect (+) | 
2 | CCCCCCCCCCCCCCCC[n+]1ccccc1 [Cetylpyridinium chloride] | no effect | 
3 | O=C(O)CN(CCN(CC(=O)O)CC(=O)O)CC(=O)O.[Ca].[Na].[Na] [Ethylenediaminetetraacetic acid calcium disodium] | no effect | 
4 | CCCCCCCCCCCCOS(=O)(=O)[O-].[Na+] [Sodium lauryl sulphate (SLS), Sodium lauryl sulphate] |  | Effect on loxapine absorption/permeation (Porcine buccal mucosa; listed as SLS, sulphate): reduce absorption/permeation; Effect on loxapine absorption/permeation (Porcine buccal mucosa; sulphate): negative effect(−)
5 | CN1CCN(C2=Nc3ccccc3Oc3ccc(Cl)cc32)CC1 [loxapine, 2-chloro-11-(4-methylpiperazin-1-yl) dibenzo[b,f] [1,4] loxazepine] |  | solubility of loxapine [1]: especially low
6 | Sodium deoxycholate | positif effect (+) | 
